Three molecules from US20070292384A1, “Water soluble micelle-forming and biodegradable cyclotriphosphazene-taxol conjugate anticancer agent and preparation method thereof” (priority 2006, published 2007) can be followed below.

Where two headings read alike, the source gives them in different places.

Data set [1] concerns MCF-7 breast cancer cell line. Kind of data set: In vitro cytotoxicity, MCF-7. Type of data set: cell-based. The note with it: average ± SD, n = 3-4. The procedure: (§1) In order to evaluate the anticancer activity of the cyclotriphosphazene-taxol conjugates of the present invention, in vitro cytotoxicity of the representative compound of Example 1 was assayed both in saline and in pure water according to a standard testing procedure (Y. J. Jun, et al., J. Inorg. Biochem. (2005) 99:1593-1601), and the test results are shown in Table 1 below.

A further data set deals with A-431. Kind of data set: In vitro cytotoxicity, A-431. Type of data set: cell-based. The note with it: average ± SD, n = 3-4. The procedure: as §1
Data set [2] has as its system SK-OV3 ovarian cancer cell line. Kind of data set: In vitro cytotoxicity, SK-OV3. Type of data set: cell-based. The note with it: average ± SD, n = 3-4. The procedure: as §1
The nature of data set [3]: Blood metabolism study in rats (HPLC of blood samples). Type of data set: in vivo, male Sprague-Dawley rats. The note with it: rat. The procedure: To a group consisting of 4 male Sprague-Dawley rats (270-300 g) was administered the compound of Example 2 dissolved in a PBS solution at a concentration of 6.67 mg/ml by intravenous infusion with a dosage of 5 mg/kg for 3 minutes. After the drug administration, blood (100 μl) samples were taken from each rat for 48 hours at 0, 0.08, 0.5, 1, 2, 3, 4, 6, 8, 12, 24, 36 and 48 hours post injection, and the samples were analyzed with HPLC, and the results are presented in Table 2 below.

Data set [4] deals with MDA-MB-231 breast cancer cell line. Kind of data set: In vitro cytotoxicity, MDA-MB-231. Type of data set: cell-based. The note with it: average ± SD, n = 3-4. The procedure: as §1
A short description of data set [5]: DLS measurement of micelle formation and micelle size. It counts as physicochemical. The following applies: 0.1 to 0.5% in distilled water, Malvern Zetasizer (Nano-ZS). The procedure:
It was determined by a DLS (dynamic light scattering) method whether the cyclotriphosphazene-taxol conjugates prepared according to the present invention are aggregated in aqueous solution through interaction of the hydrophobic oligopeptide groups, so as to form micelles, according to the following procedure: A size distribution of an aqueous solution, in which 0.1 to 0.5% of the cyclotriphosphazene-taxol conjugate prepared in Example 1 was dissolved in distilled water, was measured by a DLS method using Malvern Zetasizer (Nano-ZS).

The mark [6] stands for this setting: intravenous infusion 5 mg/kg for 3 minutes, average.

For orientation: IC50 means the concentration that inhibits the measured activity by half. The low end stands for inhibition by little substance, the high end for a need for much substance. One may read the AUC(0-t) as the area under the concentration-time curve up to a stated or last time point.

The molecule `CC(=O)O[C@H]1C(=O)[C@@]2(C)[C@H]([C@H](OC(=O)c3ccccc3)[C@]3(O)C[C@H](OC(=O)[C@H](O)[C@@H](NC(=O)c4ccccc4)c4ccccc4)C(C)=C1C3(C)C)[C@]1(OC(C)=O)CO[C@@H]1C[C@@H]2O` [Taxol (free), Taxol] registered an IC50 in data set [1] (Homo sapiens, MCF7, free taxol) of 39 ± 4.9 nM. Also, in the data set with A-431 (Homo sapiens, A-431, free taxol), the IC50 amounted to 25.1 ± 8.9 nM. Also, the IC50 in data set [2] (Homo sapiens, SK-OV-3, free taxol) was 65.8 ± 0.5 nM. Also, the AUC(0-t) in data set [3] (male, Sprague-Dawley, blood, intravenous infusion 5 mg/kg for 3 minutes, average, sampling to 48 hours) amounted to 1970 ng·h/mL. Also, the AUC(0-inf) in data set [3] (male, Sprague-Dawley, blood, intravenous infusion 5 mg/kg for 3 minutes, average, read-out: AUCINF (measurement)) is 2290 ng·h/mL. Also, in data set [3] (male, Sprague-Dawley, blood, intravenous infusion 5 mg/kg for 3 minutes, average, read-out: C0), the C0 came out at 2700 ng/mL. In data set [3] (setting [6]), the AUClast/AUCINF amounted to 85.9%, the Cl_obs was determined as 556.2 mL/h, the Lambda z worked out at 0.275 h⁻¹ and the Vz_obs was determined as 2778.1 mL. In data set [3] (setting [6]), the t½_Lambda z came to 3.54 h. The molecule also had an IC50 in data set [4] (Homo sapiens, MDA-MB-231, free taxol) of 47.1 ± 12.2 nM.

As to “[tris(methoxy-polyethyleneglycol350)][tris(glycyllysinemethylester)-mono-2′-succinyltaxol]cyclotriphosphazene [Example 1]”, the IC50 came to 447 ± 138 nM in data set [1] (in pure water); 129 ± 37.5 nM in data set [1] (in saline solution); 380 ± 89.2 nM in the data set with A-431 (in pure water); 53.8 ± 13.9 nM in the data set on A-431 (in saline solution); 503 ± 114 nM in data set [2] (in pure water); 138 ± 14.3 nM in data set [2] (in saline solution). Besides, the IC50 in data set [4] (in pure water) turned out to be 327 ± 54.5 nM; in data set [4] (in saline solution), 108 ± 10.9 nM. For the same molecule, in data set [5], the “micelle radius (DLS)” value is 105 nm.

On to “[tris(methoxy-polyethyleneglycol550)][tris(glycyllysinemethylester)-mono-2′-succinyltaxol]cyclotriphosphazene [Example 2]”, for which, in data set [3] (setting [6]), the “AUCINF (measurement)” value worked out at 2.55, the AUClast/AUCINF amounted to 77.1%, the C0 was found to be 1530 ng/mL and the Cl_obs was 513.3 mL/h. In data set [3] (setting [6]), this molecule yielded a Lambda z of 0.133 h⁻¹, a Vz_obs of 4468.9 mL and a t½_Lambda z of 6.29 h. In data set [3] (intravenous infusion 5 mg/kg for 3 minutes, average, sampling to 48 hours), the AUClast was determined as 1970 ng·h/mL. Also, the “in vivo half life relative to free taxol” value in data set [3] (intravenous, compared with free taxol not formulated) is given as “twice longer”.
